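How tested: cells in 96-well plates exposed to compound for 48 hours at five concentrations. GI50: concentration for 50% inhibition of growth. TGI: total growth inhibition.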
What was measured:
Test in all cases: NCI anticancer screen, dose series, 48 h
NCI-H23 lung = test system: NCI-H23 lung
U251 CNS = test system: U251 CNS
DU-145 prostate = test system: DU-145 prostate
SF-295 CNS = test system: SF-295 CNS
MCF7 breast = test system: MCF7 breast
PC-3 prostate = test system: PC-3 prostate
SW-620 colon = test system: SW-620 colon
M14 melanoma = test system: M14 melanoma
786-0 renal = test system: 786-0 renal
NCI-H226 lung = test system: NCI-H226 lung

| Structure (SMILES) | GI50 (NCI-H23 lung) [µM] | TGI (NCI-H23 lung) [µM] | GI50 (U251 CNS) [µM] | TGI (U251 CNS) [µM] | GI50 (DU-145 prostate) [µM] | TGI (DU-145 prostate) [µM] | GI50 (SF-295 CNS) [µM] | TGI (SF-295 CNS) [µM] | GI50 (MCF7 breast) [µM] | TGI (MCF7 breast) [µM] | GI50 (PC-3 prostate) [µM] | TGI (PC-3 prostate) [µM] | GI50 (SW-620 colon) [µM] | TGI (SW-620 colon) [µM] | TGI (M14 melanoma) [µM] | TGI (786-0 renal) [µM] | TGI (NCI-H226 lung) [µM] | GI50 (M14 melanoma) [µM] | GI50 (NCI-H226 lung) [µM] |
| --- | --- | --- | --- | --- | --- | --- | --- | --- | --- | --- | --- | --- | --- | --- | --- | --- | --- | --- | --- |
| C=C(C)[C@@H]1CC[C@]2(C(=O)NC(C)=O)CC[C@]3(C)[C@H](CC[C@@H]4[C@@]5(C)CCCNC(C)(C)[C@@H]5CC[C@]43C)[C@@H]12 | 1.76 | 3.51 | 1.68 | 3.26 | 1.57 | 2.94 | 1.81 | 3.24 | 1.41 | 3 | 1.59 | 3.5 | 1.53 | 3.07 |  |  |  |  |  |
| CCn1c2ccccc2c2cc(Nc3cc(C)[nH]c(=O)n3)ccc21 |  | > 100 |  | > 100 |  | > 100 |  | > 100 |  | > 100 |  | > 100 |  | > 100 | > 100 | > 100 |  |  |  |
| O=C(O)c1ccc(N/C(=C(/C(Cl)=C(Cl)Cl)[N+](=O)[O-])n2nnc3ccccc32)cc1 |  | > 100 |  | > 100 |  |  |  | > 100 |  | > 100 |  | > 100 |  | > 100 | > 100 | > 100 | > 100 |  |  |
| CC(C)(C)C1=C(Br)C(OC(=O)C(F)(F)F)(C(C)(C)C)OP1(=O)c1ccccc1 (configuration not stated) |  | > 100 |  | > 100 |  | > 100 |  | > 100 |  | > 100 |  | 93.5 |  |  | > 100 | > 100 | > 100 |  |  |
| CN1CCC2(CC1)C(=NC1CCCCC1)NC(=O)N2c1ccccc1 |  | > 100 |  | > 100 |  | > 100 |  | > 100 |  | > 100 |  |  |  | > 100 | > 100 | > 100 | > 100 |  |  |
| COc1ccc(-c2n/c(=C\c3c(O)[nH]c4ccccc34)cc3c2=Nc2ccccc2-3)cc1 | 1.55 | 3.09 | 1.45 | 2.76 | 1.61 | 3.31 |  |  | 1.28 | 2.75 | 1.3 | 9.31 | 1.11 | 2.31 | 2.43 |  | 36.2 | 1.15 | 15.1 |
| c1cc2c(cc1C1=NCCN1)c1cc(C3=NCCN3)ccc1n2CC1CCCCC1 |  | 88.9 |  | 22.9 |  | 77.1 |  | > 100 |  |  |  | > 100 |  | > 100 | > 100 | 96.4 | 48.7 |  |  |
| COC(=O)c1cc(/C=C\c2cc(OC)ccc2OC)ccc1OC |  | > 100 |  | > 100 |  | > 100 |  | > 100 |  | 84.4 |  | > 100 |  | > 100 | 84.2 | > 100 |  |  |  |
| C=C(C)[C@@H]1CC[C@]2(CO)CC[C@]3(C)[C@H](CC[C@@H]4[C@@]5(C)CC[C@H](NCO)C(C)(C)[C@@H]5CC[C@]43C)[C@@H]12 | 0.869 | 1.67 |  |  | 0.878 | 1.58 | 0.873 | 1.58 | 0.794 | 1.61 | 0.85 | 1.85 | 0.948 | 1.96 |  |  | 20.5 |  | 8.3 |
| O=C(Nc1ccc(Cl)cc1)c1cc(S(=O)(=O)Nc2n[nH]c(=O)n2-c2ccccc2)c(S)cc1Cl |  | > 100 |  | > 100 |  | > 100 |  | > 100 |  | > 100 |  |  |  | > 100 | > 100 | > 100 | > 100 |  |  |
| CCOC(=O)/C=C/[C@@H](CC)O[Si](C(C)C)(C(C)C)C(C)C |  | > 100 |  | > 100 |  | > 100 |  | > 100 |  | > 100 |  | > 100 |  | > 100 |  | > 100 | > 100 |  |  |
| C(=C/c1nc2ccccc2o1)/c1ccc2c(c1)OCO2 |  | > 100 |  | 42.1 |  |  |  | 23.1 |  | > 79.8 |  |  |  | > 100 |  |  | 55.2 |  |  |
| O=C1CC(c2ccccc2)S(=O)c2ccccc2N1 (configuration not stated) |  | > 100 |  | > 100 |  | > 100 |  |  |  | > 100 |  | > 100 |  |  | > 100 | > 100 | > 100 |  |  |
| CCCCCCCCCCCCOP(=O)(O)OP(=O)(O)OCC1OC(n2cc(C)c(=O)[nH]c2=O)CC1O (configuration not stated) |  | > 100 |  | > 100 |  |  |  | > 100 |  | > 100 |  | > 100 |  | > 100 | > 100 | > 100 | > 100 |  |  |
| CC(=O)OCC1OC(n2c(-c3ccccc3)c(N=Nc3ccc(C)cc3)c(C)c(C#N)c2=S)C(OC(C)=O)C(OC(C)=O)C1OC(C)=O (configuration not stated) |  | 42.1 |  | 33.4 |  | > 100 |  | 97.2 |  | > 100 |  |  |  | 11.4 | 16.8 | 12.5 |  |  |  |

From PubChem BioAssay (NCI)
